Like-named read-outs stand apart in the source and are kept apart here.
Key:
G56A mice [1] = assay: Small intestinal transit (rhodamine B dextran geometric center) with exogenous 5-HT; format: in vivo, mouse; settings: G56A mice compared to WT mice (FIG. 2D)
Description: For analysis of gastric emptying and small intestinal transit, mice were fasted overnight in cages that lacked bedding. Water was withdrawn 3 hours before the experiment. A solution containing rhodamine B dextran (100 μl; 10 mg/ml in 2% methylcellulose, Invitrogen, Carlsbad, Calif.) was administered to each mouse by gavage through a 21-gauge round-tip feeding needle. Animals were euthanized 15 minutes after gavage; the stomach, small intestine, cecum, and colon were collected in 0.9% NaCl. The small intestine was divided into 10 segments of equal length and the colon (used to obtain total recovered rhodamine B fluorescence) was divided in half. […] Rhodamine fluorescence was measured in 1 ml aliquots of the supernatant (VersaFluor™ Fluorometer; BIO-RAD Laboratories, Hercules, Calif.). The proportion of the Rhodamine B dextran that emptied from the stomach was calculated as [(total recovered fluorescence−fluorescence remaining in the stomach)/(total recovered fluorescence)]×100.
Small intestinal transit was estimated by the position of the geometric center of the Rhodamine B dextran in the small bowel (Miller et al., 1981). For each segment of the small intestine (1-10), the geometric center (a) was calculated as: a=(fluorescence in each segment×number of the segment)/(total fluorescence recovered in the small intestine). […]

[2] = tested on: ENCDC isolated from E15 fetal mouse gut; assay: Development/survival of enteric neurons from cultured ENCDC isolated from E15 fetal mouse gut; format: cell-based; settings: ENCDC culture; for development/survival of total enteric neurons / development/survival of early-born (calretinin) neurons / development/survival of late-born enteric neurons that express TH or GABA / effect on development/survival of late-born neurons compared with total neurons: serum-free media; for development/survival of total enteric neurons: prucalopride 2.5 μM, BIMU-8 2.5 μM; for development/survival of early-born (calretinin) neurons / development/survival of late-born enteric neurons that express TH or GABA / effect on development/survival of late-born neurons compared with total neurons: 2.5 μM
Description: Immunocytochemistry was performed as follows: HuC/D, TH, g-aminobutyric acid (GABA), nNOS, and CGRP were located immunocytochemically to determine the abundance of total, dopaminergic, GABAergic, nitrergic and CGRP-expressing enteric neurons in G56A mice and their respective WT littermates. SERT immunoreactivity was also investigated to determine whether or not it is coincident with TH immunoreactivity in the myenteric plexus. In each experimental group, tissue samples were collected from ilea of 6-8 animals, fixed with 4% formaldehyde for 1.5 hours and washed in PBS. Whole mount preparations of longitudinal muscle with attached myenteric plexus (LMMP) were prepared by dissection. Cultured cells were fixed with 4% formaldehyde for 30 minutes and washed in PBS. Preparations were blocked with 10% normal horse serum for 30 minutes at room temp and then incubated for 48 or 72 hours at 4° C. with primary antibodies. Bound primary antibodies were visualized, respectively, with streptavidin-Alexa 594 for mouse monoclonal antibodies, and donkey antibodies to goat, rabbit, or sheep IgG coupled to Alexa 350, 488 or 594 (diluted 1:200; Invitrogen). Preparations were washed with PBS, mounted in buffered glycerol, and examined with a Leica CTR 6000 microscope. Images were obtained with a cooled CCD camera and analyzed with computer assistance (Volocity 5.4 imaging software; Improvision, Waltham, Mass.). To count the numbers of HuC/D-immunoreactive cells in each LMMP preparation, a motorized stage under computer control was used to scan and collect images with a 40× objective covering the entirety of a 10 mm^2 area. To count the numbers of CGRP-, nNOS- and TH-immunoreactive cells a similar procedure was used, except that images were collected with a 20× objective and that an area of 30 mm^2 was scanned. The higher magnification was needed for HuC/D-immunoreactive cells to be certain that overlapping cells could be distinguished. The lower magnification was advantageous for TH-immunoreactive cells, which are widely separated and relatively rare, because the cells were scattered and large numbers could be imaged for statistical reliability. The collected images were processed using a computer running Volocity 5.6 software to determine the numbers of immunoreactive cells of each type, which were presented as cells/mm^2. TH-immunoreactive terminal axons in the myenteric plexus of ileum of four G56A SERT and four WT mice were examined to study the effects of G56A SERT on the density of extrinsic sympathetic terminals. Sympathetic axons are far more abundant that dopaminergic axons in the myenteric plexus. Their large varicosities and coarse structure also distinguish sympathetic from dopaminergic axons. Dopaminergic neurons, moreover, are primarily located in the submucosal plexus. In each preparation, 3 images were obtained with a 40× objective. The total area occupied by TH-immunoreactive terminals in each image was obtained with computer assistance (Volocity 5.6 software; Improvision, Perkin Elmer).
The hypothesis was tested that 5-HT-promoted enteric neurogenesis is 5-HT4-mediated. The responsible receptor was also sought. ENCDC were isolated from E15 fetal mouse gut with antibodies to p75NTR and cultured in serum-free media. […] The 5-HT4 antagonist, GR113808 (1.0 μM), prevented 5-HT, prucalopride, or BIMU-8 from enhancing development/survival of total dopaminergic or GABAergic neurons.

G56A mice [3] = assay: GI motility in mature offspring after prenatal and nursing prucalopride treatment, G56A mice; format: in vivo, mouse; settings: prucalopride oral in dams' drinking water (24 mg in 350 ml) from early pregnancy until weaning, then stopped
Description: (§1) Carmine red, which cannot be absorbed from the lumen of the gut, was used to study total GI transit time (Kimball et al., 2005). A solution of carmine red (300 μl; 6%; Sigma Aldrich, St. Louis, Mo.) suspended in 0.5% methylcellulose (Sigma Aldrich, St. Louis, Mo.) was administered by gavage through a 21-gauge round-tip feeding needle. The time at which gavage took place was recorded as TO. After gavage, fecal pellets were monitored at 10 minutes intervals for the presence of carmine red. Total GI transit time was considered as the interval between TO and the time of first observance of carmine red in stool.
(§2) Colonic motility was studied as previously described (Li et al., 2006). Briefly, the animals were anesthetized with isoflurane (Baxter Pharmaceutical Products Inc, Deerfield, Ill.). A glass bead (3 mm in diameter) was pushed into the colon to a distance of 2 cm from the anal verge. The time required for expulsion of the glass bead was measured and taken as an estimate of colonic motility.
(§3) The dose of prucalopride was 24 mg into 350 ml of water and the mice were assumed to drink about 5 ml/day. After birth, the prucalopride was continued in the drinking water, and was thus delivered to the newborn and suckling pups via breast milk. When the pups were weaned, the prucalopride was stopped; therefore, the exogenous 5-HT4 stimulation was allowed to cease. […]

[4] = tested on: wild-type adult mice and mice lacking 5-HT4 receptors; settings: cited from earlier work
WT mice = assay: GI motility in mature offspring after prenatal and nursing prucalopride treatment, WT mice; format: in vivo, mouse; settings: prucalopride treatment of fetal and nursing mice
Description: as §1, §2, §3

Row | Structure (SMILES) | ability to accelerate small intestinal transit (G56A mice [1]) | development/survival of total enteric neurons [2] | development/survival of early-born (calretinin) neurons [2] | development/survival of late-born enteric neurons that express TH or GABA [2] | effect on development/survival of late-born neurons compared with total neurons [2] | antagonism of the enhancement by 5-HT, prucalopride or BIMU-8 of development/survival of total dopaminergic or GABAergic neurons ([2]; GR113808 1.0 μM) | GI motility in offspring at ages 2-3 months (G56A mice [3]) | enteric neurogenesis ([4]; adult mice lacking 5-HT4 receptors) | enteric neurogenesis ([4]; wild-type adult mice) | GI motility in the mature animals (WT mice)
1 | NCCc1c[nH]c2ccc(O)cc12 [5-HT, 5-hydroxytryptamine] | impaired | enhanced the development/survival of total enteric neurons |  |  |  |  |  |  |  | 
2 | CC(C)n1c(=O)n(C(=O)NC2CC3CCC(C2)N3C)c2ccccc21 (stereo not drawn) [BIMU-8] |  | enhanced the development/survival of total enteric neurons | Neither prucalopride nor BIMU-8 enhanced | increased development/survival | significantly greater than on total |  |  |  |  | 
3 | Cn1cc(C(=O)OCC2CCN(CCNS(C)(=O)=O)CC2)c2ccccc21 [GR113808] |  |  |  |  |  | prevented |  |  |  | 
4 | COCCCN1CCC(NC(=O)c2cc(Cl)c(N)c3c2OCC3)CC1 [prucalopride] |  | enhanced the development/survival of total enteric neurons | Neither prucalopride nor BIMU-8 enhanced | increased development/survival | significantly greater than on total |  | restored to normal | not in those lacking 5-HT4 receptors | stimulate enteric neurogenesis | not found to exert significant effects
